Activity calls are given as the source filed them. No cut-off for these calls is given here.
Legend:
[1] = target: T1, Sodium/glucose cotransporter 1 (Homo sapiens, UniProt P13866); assay: Inhibition of human SGLT1 expressed in CHOK1 cells assessed as reduction in Na-dependent [14C]-methyl-alpha-D-glucopyranoside uptake after 30 mins by microbeta counting method; type: cell-based
T1 sequence (P13866 whole entry): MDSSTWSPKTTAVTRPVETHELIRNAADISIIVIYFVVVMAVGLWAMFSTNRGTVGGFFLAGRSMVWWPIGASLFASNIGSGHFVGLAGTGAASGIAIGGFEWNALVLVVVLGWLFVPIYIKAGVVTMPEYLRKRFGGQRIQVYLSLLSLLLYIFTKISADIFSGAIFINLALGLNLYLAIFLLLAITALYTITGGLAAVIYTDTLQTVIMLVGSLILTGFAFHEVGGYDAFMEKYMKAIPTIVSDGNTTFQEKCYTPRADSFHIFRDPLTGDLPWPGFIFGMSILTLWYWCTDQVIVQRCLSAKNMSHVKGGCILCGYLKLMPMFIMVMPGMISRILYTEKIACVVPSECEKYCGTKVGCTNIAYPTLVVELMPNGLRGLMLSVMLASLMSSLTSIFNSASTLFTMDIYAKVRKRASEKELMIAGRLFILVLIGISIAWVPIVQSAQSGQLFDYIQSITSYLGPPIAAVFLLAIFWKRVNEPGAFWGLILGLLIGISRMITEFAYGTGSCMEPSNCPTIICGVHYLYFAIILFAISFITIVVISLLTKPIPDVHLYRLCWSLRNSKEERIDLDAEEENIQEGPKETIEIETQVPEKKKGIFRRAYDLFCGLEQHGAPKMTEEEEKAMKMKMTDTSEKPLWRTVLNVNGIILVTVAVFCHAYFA

[2] = target: T2, Sodium/glucose cotransporter 2 (Homo sapiens, UniProt P31639); assay: Inhibition of human SGLT2 expressed in CHOK1 cells assessed as reduction in Na-dependent [14C]-methyl-alpha-D-glucopyranoside uptake after 1 hr by microbeta counting method; type: cell-based
T2 sequence (P31639 whole entry): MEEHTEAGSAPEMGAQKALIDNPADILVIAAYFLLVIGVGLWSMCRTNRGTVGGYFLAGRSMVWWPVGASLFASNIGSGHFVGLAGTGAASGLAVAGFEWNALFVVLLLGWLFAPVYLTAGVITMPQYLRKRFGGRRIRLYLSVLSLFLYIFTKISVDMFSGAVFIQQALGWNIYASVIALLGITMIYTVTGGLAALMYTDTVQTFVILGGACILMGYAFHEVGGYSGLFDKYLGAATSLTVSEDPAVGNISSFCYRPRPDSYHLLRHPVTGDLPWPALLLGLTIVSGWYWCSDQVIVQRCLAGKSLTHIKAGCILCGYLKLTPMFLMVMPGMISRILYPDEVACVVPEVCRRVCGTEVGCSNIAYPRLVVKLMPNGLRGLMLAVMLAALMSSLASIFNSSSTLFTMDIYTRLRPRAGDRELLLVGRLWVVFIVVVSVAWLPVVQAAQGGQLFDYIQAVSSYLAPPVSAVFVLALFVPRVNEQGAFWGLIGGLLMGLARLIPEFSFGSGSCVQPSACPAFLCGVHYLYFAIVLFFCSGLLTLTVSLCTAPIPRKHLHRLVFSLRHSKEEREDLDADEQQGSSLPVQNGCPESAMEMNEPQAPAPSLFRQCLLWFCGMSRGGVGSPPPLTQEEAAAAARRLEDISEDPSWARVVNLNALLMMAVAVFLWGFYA

[3] = Total clearance in Sprague-Dawley rat at 2 mg/kg, iv administered as single dose by LC-MS analysis; type: ADME, organism-based; settings: in vivo
[4] = Volume of distribution at steady state in Sprague-Dawley rat at 2 mg/kg, iv administered as single dose by LC-MS analysis; type: ADME, organism-based; settings: in vivo, read-out: Vdss
[5] = Terminal half life in Sprague-Dawley rat at 2 mg/kg, iv administered as single dose by LC-MS analysis; type: ADME, organism-based; settings: in vivo, read-out: beta t1/2 (converted)
[6] = Cmax in Sprague-Dawley rat at 1 mg/kg, po administered as single dose by LC-MS analysis; type: ADME, organism-based; design: dose 1 mg/kg, route oral; settings: in vivo
[7] = Tmax in Sprague-Dawley rat at 1 mg/kg, po administered as single dose by LC-MS analysis; type: ADME, organism-based; settings: in vivo
[8] = Oral bioavailability in Sprague-Dawley rat at 1 mg/kg administered as single dose by LC-MS analysis; type: ADME, organism-based; settings: in vivo
[9] = Permeability of the compound at 50 uM after 24 hrs at pH 7.4 by PAMPA; type: ADME; settings: read-out: permeability
[10] = tested on: Rattus norvegicus; assay: Hypoglycemic effect in Sprague-Dawley rat assessed as reduction in blood glucose AUC (0 to 2 hrs) at 0.1 mg/kg, po pretreated followed by glucose challenge by OGTT relative to control; type: functional; design: scale not given: the % may be the effect or the level left
[11] = tested on: Rattus norvegicus; assay: Hypoglycemic effect in Sprague-Dawley rat assessed as reduction in blood glucose AUC (0 to 2 hrs) at 0.3 mg/kg, po pretreated followed by glucose challenge by OGTT relative to control; type: functional; design: scale not given: the % may be the effect or the level left
[12] = tested on: Rattus norvegicus; assay: Hypoglycemic effect in Sprague-Dawley rat assessed as reduction in blood glucose AUC (0 to 2 hrs) at 1 mg/kg, po pretreated followed by glucose challenge by OGTT relative to control; type: functional; design: scale not given: the % may be the effect or the level left
[13] = tested on: Rattus norvegicus; assay: Hypoglycemic effect in Sprague-Dawley rat assessed as reduction in blood glucose AUC (0 to 2 hrs) pretreated orally followed by glucose challenge by OGTT; type: functional, organism-based
[14] = tested on: Rattus norvegicus; assay: In vivo inhibition of SGLT2 Sprague-Dawley rat assessed as increase in urinary glucose excretion at 0.1 to 0.3 mg/kg, po bid for 4 days followed by glucose challenge on day 5; type: functional, organism-based

CCOc1ccc(Cc2cc([C@@H]3S[C@H](CO)[C@@H](O)[C@H](O)[C@H]3O)c(O)cc2C)cc1
IC50 [1]: 162 nM
IC50 [2]: 3 nM

COc1ccc(Cc2cc([C@@H]3S[C@H](CO)[C@@H](O)[C@H](O)[C@H]3O)c(O)cc2C)cc1
IC50 [1]: 65 nM

CCc1ccc(Cc2cc([C@@H]3S[C@H](CO)[C@@H](O)[C@H](O)[C@H]3O)c(O)cc2C)cc1
IC50 [2]: 2 nM

Cc1cc(O)c([C@@H]2S[C@H](CO)[C@@H](O)[C@H](O)[C@H]2O)cc1Cc1ccc(OC(C)C)cc1
IC50 [1]: 414 nM
IC50 [2]: 3 nM

Cc1cc(O)c([C@@H]2O[C@H](CO)[C@@H](O)[C@H](O)[C@H]2O)cc1Cc1ccc(CCCC(=O)NC(CO)(CO)CO)cc1
IC50 [1]: 35 nM

Cc1ccc(Cc2cc([C@@H]3S[C@H](CO)[C@@H](O)[C@H](O)[C@H]3O)c(O)cc2C)cc1
IC50 [1]: 25 nM
IC50 [2]: 2 nM

Cc1cc(O)c([C@@H]2O[C@H](CO)[C@@H](O)[C@H](O)[C@H]2O)cc1Cc1ccc(CCCC(=O)NC(C)(CO)CO)cc1
IC50 [1]: 32 nM

Cc1cc(O)c([C@@H]2O[C@H](CO)[C@@H](O)[C@H](O)[C@H]2O)cc1Cc1ccc(CCNC(=O)NC(C)(C)CO)cc1
IC50 [2]: 4 nM

Cc1cc(O)c([C@@H]2O[C@H](CO)[C@@H](O)[C@H](O)[C@H]2O)cc1Cc1ccc(CCCC(=O)NC(C)(C)C(N)=O)cc1
IC50 [1]: 51 nM
IC50 [2]: 7 nM

Cc1cc(O)c([C@@H]2S[C@H](CO)[C@@H](O)[C@H](O)[C@H]2O)cc1Cc1ccc(CCCC(=O)NC(C)(CO)CO)cc1
IC50 [1]: 22 nM
IC50 [2]: 5 nM

Cc1cc(O)c([C@@H]2S[C@H](CO)[C@@H](O)[C@H](O)[C@H]2O)cc1Cc1ccc(CCCC(=O)NC(CO)(CO)CO)cc1
IC50 [1]: 35 nM
IC50 [2]: 9 nM

Cc1cc(O)c([C@@H]2O[C@H](CO)[C@@H](O)[C@H](O)[C@H]2O)cc1Cc1ccc(CCCNC(=O)N2CCN(C)CC2)cc1
IC50 [1]: 764 nM
IC50 [2]: 5 nM

Cc1cc(O)c([C@@H]2O[C@H](CO)[C@@H](O)[C@H](O)[C@H]2O)cc1Cc1ccc(CCCNC(=O)NC(C)(C)CO)cc1
IC50 [2]: 5 nM

Cc1cc(O)c([C@@H]2S[C@H](CO)[C@@H](O)[C@H](O)[C@H]2O)cc1Cc1ccc(CCCC(=O)NC(C)(C)C(N)=O)cc1
IC50 [1]: 47 nM
IC50 [2]: 4 nM

Cc1cc(O)c([C@@H]2O[C@H](CO)[C@@H](O)[C@H](O)[C@H]2O)cc1Cc1ccc(CCCNC(=O)NC(CO)(CO)CO)cc1
IC50 [2]: 7 nM

Cc1cc(O)c([C@@H]2O[C@H](CO)[C@@H](O)[C@H](O)[C@H]2O)cc1Cc1ccc(CCNC(=O)NC(CO)(CO)CO)cc1
IC50 [1]: 28 nM
IC50 [2]: 7 nM
clearance [3]: 18 mL/min/kg
Vd [4]: 0.439 L/kg
half-life [5]: 21.7 min
Cmax [6]: 1.46 ng/mL
Tmax [7]: 15 min
bioavailability [8]: 0.05%
Papp at 24 h, 50 µM [9]: 0.3 ×10⁻⁶ cm/s
Activity [10]: 31.5%
Activity [11]: 58.5%
Activity [12]: 62.2%
Activity [13]: Dose-dependent effect
inhibition [14]: inactive

— ChEMBL document CHEMBL4265985, “Discovery of a potent, low-absorbable sodium-dependent glucose cotransporter 1 (SGLT1) inhibitor (TP0438836) for the treatment of type 2 diabetes” (Bioorg Med Chem Lett, 2018)
